Results taken from US11970511B2, “Tetrahydropyran-based thiodisaccharide mimics as Galectin-3 inhibitors” (BRISTOL-MYERS SQUIBB COMPANY, priority 2018, dated 2024).

biological target: His-tagged recombinant human Gal-3 (hGal-3) (Homo sapiens, UniProt P17931); test: Gal-3 HTRF assay: His-tagged hGal-3 binding to B-ASF, Anti-His terbium antibody / Streptavidin d2 detection; conditions: 15 nM hGal-3, 15 nM B-ASF, three replicates, room temperature;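 note: compound preincubated 30 min with hGal-3, then 1 h with B-ASF, DMSO wells with B-ASF serving as positive control and those lacking B-ASF as negative control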
Sequence (P17931 whole entry): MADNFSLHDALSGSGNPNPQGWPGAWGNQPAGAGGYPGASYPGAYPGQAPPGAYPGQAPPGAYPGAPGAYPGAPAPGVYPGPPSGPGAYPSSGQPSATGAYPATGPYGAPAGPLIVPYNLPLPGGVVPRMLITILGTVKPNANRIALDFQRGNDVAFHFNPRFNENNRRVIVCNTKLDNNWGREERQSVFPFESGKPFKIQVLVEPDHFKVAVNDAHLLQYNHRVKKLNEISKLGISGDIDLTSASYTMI

SMILES	IC50 [nM]
COc1ncc(-c2cn(C3COCC(SC4OC(CO)C(O)C(n5cc(-c6cc(F)c(F)c(F)c6)nn5)C4OCC(=O)N4CC(C)OC(C)C4)C3O)nn2)cn1 (single isomer, unassigned) [Example 32]	19
COc1cnc(-c2cn([C@H]3COC[C@@H](S[C@@H]4O[C@H](CO)[C@H](O)[C@H](n5cc(-c6cc(F)c(F)c(F)c6)nn5)[C@H]4OC)[C@@H]3O)nn2)nc1N [Example 21, (2R,3R,4S,5R,6S)-6-(((3R,4R,5S)-5-(4-(4-amino-5-methoxypyrimidin-2-yl)-1H-1,2,3-triazol-1-yl)-4-hydroxytetrahydro-2H-pyran-3-yl)thio)-2-(hydroxymethyl)-5-methoxy-4-(4-(3,4,5-trifluorophenyl)-1H-1,2,3-triazol-1-yl)tetrahydro-2H-pyran-3-ol]	23
O=C(O)COC1C(SC2COCC(n3cc(-c4cncnc4)nn3)C2O)OC(CO)C(O)C1n1cc(-c2cc(F)c(F)c(F)c2)nn1 [Example 26, 2-(((2S,3R,4S,5R,6R)-5-hydroxy-2-(((3R,4R,5S)-4-hydroxy-5-(4-(pyrimidin-5-yl)-1H-1,2,3-triazol-1-yl)tetrahydro-2H-pyran-3-yl)thio)-6-(hydroxymethyl)-4-(4-(3,4,5-trifluorophenyl)-1H-1,2,3-triazol-1-yl)tetranydro-2H-pyran-3-yl)oxy)acetic acid]	15
COC(=O)COC1C(SC2COCC(n3cc(-c4cncnc4)nn3)C2O)OC(CO)C(O)C1n1cc(-c2cc(F)c(F)c(F)c2)nn1 [Example 27, methyl 2-(((2S,3R,4S,5R,6R)-5-hydroxy-2-(((3R,4R,5S)-4-hydroxy-5-(4-(pyriin-5-yl)-1H-1,2,3-triazol-1-yl)tetrahydro-2H-pyran-3-yl)thio)-6-(hydroxymethyl)-4-(4-(3,4,5-trifluorophenyl)-1H-1,2,3-triazol-1-yl)tetrahydro-2H-pyran-3-yl)oxy)acetate]	17
O=C(CO[C@@H]1[C@@H](n2cc(-c3cc(F)c(F)c(F)c3)nn2)[C@@H](O)[C@@H](CO)O[C@H]1S[C@@H]1COC[C@H](n2cc(-c3cncnc3)nn2)[C@H]1O)N1CCOCC1 [Example 28, 2-(((2S,3R,4S,5R,6R)-5-hydroxy-2-(((3R,4R,5S)-4-hydroxy-5-(4-(pyrimidin-5-yl)-1H-1,2,3-triazol-1-yl)tetrahydro-2H-pyran-3-yl)thio)-6-(hydroxymethyl)-4-(4-(3,4,5-trifluorophenyl)-1H-1,2,3-triazol-1-yl)tetrahydro-2H-pyran-3-yl)oxy)-1-morpholinoethan-1-one]	10
CN(C(=O)COC1C(SC2COCC(n3cc(-c4cncnc4)nn3)C2O)OC(CO)C(O)C1n1cc(-c2cc(F)c(F)c(F)c2)nn1)c1ccccc1 [Example 29, 2-(((2S,3R,4S,5R,6R)-5-hydroxy-2-(((3R,4R,5S)-4-hydroxy-5-(4-(pyrimidin-5-yl)-1H-1,2,3-triazol-1-yl)tetrahydro-2H-pyran-3-yl)thio)-6-(hydroxymethy)-4-(4-(3,4,5-trifluorophenyl)-1H-1,2,3-triazol-1-yl)-2H-pyran-3-yl)oxy)-N-methyl-N-phenylacetamide]	25
COc1ncc(-c2cn([C@H]3COC[C@@H](S[C@@H]4O[C@H](CO)[C@H](O)[C@H](n5cc(-c6cc(F)c(F)c(F)c6)nn5)[C@H]4OCC(=O)O)[C@@H]3O)nn2)cn1 [Example 30, 2-(((2S,3R,4S,5R,6R)-5-hydroxy-2-(((3R,4R,5S)-4-hydroxy-5-(4-(2-methoxypyrimidin-5-yl)-1H-1,2,3-triazol-1-yl)tetrahydro-2H-pyran-3-yl)thio)-6-(hydroxymethyl)-4-(4-(3,4,5-trifluorophenyl)-1H-1,2,3-triazol-1-yl)tetrahydro-2H-pyran-3-yl)oxy)acetic acid]	8
COc1ncc(-c2cn([C@H]3COC[C@@H](S[C@@H]4O[C@H](CO)[C@H](O)[C@H](n5cc(-c6cc(F)c(F)c(F)c6)nn5)[C@H]4OCC(=O)N4CCOCC4)[C@@H]3O)nn2)cn1 [Example 31, 2-(((2S,3R,4S,5R,6R)-5-hydroxy-2-(((3R,4R,5S)-4-hydroxy-5-(4-(2-methoxypyrimidin-5-yl)-1H-1,2,3-triazol-1-yl)tetrahydro-2H-pyran-3-yl)thio)-6-(hydroxymethyl)-4-(4-(3,4,5-trifluorophenyl)-1H-1,2,3-triazol-1-yl)tetrahydro-2H-pyran-3-yl)oxy)-1-morpholinoethan-1-one]	13
COc1ncc(-c2cn(C3COCC(SC4OC(CO)C(O)C(n5cc(-c6cc(F)c(F)c(F)c6)nn5)C4OCC(=O)N4CCS(=O)(=O)CC4)C3O)nn2)cn1 [Example 33, 1-(1,1-dioxidothiomorpholino)-2-(((2S,3R,4S,5R,6R)-5-hydroxy-2-(((3R,4R,5S)-4-hydroxy-5-(4-(2-methoxypyrimidin-5-yl)-1-1,2,3-triazol-1-yl)tetrahydro-2H-pyran-3-yl)thio)-6-(hydroxymethyl)-4-(4-(3,4,5-trifluorophenyl)-1H-1,2,3-triazol-1-yl)tetrahydro-2H-pyran-3-yl)oxy)ethan-1-one]	12
COc1ncc(-c2cn([C@H]3COC[C@@H](S[C@@H]4O[C@H](CO)[C@H](O)[C@H](n5cc(-c6cc(F)c(F)c(F)c6)nn5)[C@H]4OCC(=O)N4CC(O)C4)[C@@H]3O)nn2)cn1 [Example 34, 2-(((2S,3R,4S,5R,6R)-5-hydroxy-2-(((3R,4R,5S)-4-hydroxy-5-(4-(2-methoxypyrimidin-5-yl)-1H-1,2,3-triazol-1-yl)tetrahydro-2H-pyran-3-yl)thio)-6-(hydroxymethyl)-4-(4-(3,4,5-trifluorophenyl)-1H-1,2,3-triazol-1-yl)tetrahydro-2H-pyran-3-yl)oxy)-1-(3-hydroxyazetidin-1-yl)ethan-1-one]	24
COc1ncc(-c2cn([C@H]3COC[C@@H](S[C@@H]4O[C@H](CO)[C@H](O)[C@H](n5cc(-c6cc(F)c(F)c(F)c6)nn5)[C@H]4OCC(=O)N4CCC4)[C@@H]3O)nn2)cn1 [Example 35, 1-(azetidin-1-yl)-2-(((2S,3R,4S,5R,6R)-5-hydroxy-2-(((3R,4R,5S)-4-hydroxy-5-(4-(2-methoxypyrimidin-5-yl)-1H-1,2,3-triazol-1-yl)tetrahydro-2H-pyran-3-yl)thio)-6-(hydroxymethyl)-4-(4-(3,4,5-trifluorophenyl)-1H-1,2,3-triazol-1-yl)tetrahydro-2H-pyran-3-yl)oxy)ethan-1-one]	32

More lines, now with the values ahead:

IC50 [nM]	SMILES
1100	CO[C@@H]1[C@@H](n2cc(-c3cccnc3)nn2)[C@@H](O)[C@@H](CO)O[C@H]1S[C@@H]1COC[C@H](n2cc(-c3ccccc3)nn2)[C@H]1O [Example A1, (2R,3R,4S,5R,6S)-6-(((3R,4R,5S)-4-hydroxy-5-(4-phenyl-1H-1,2,3-triazol-1-yl)tetrahydro-2H-pyran-3-yl)thio)-2-(hydroxymethyl)-5-methoxy-4-(4-(pyridin-3-yl)-1H-1,2,3-triazol-1-yl)tetrahydro-2H-pyran-3-ol]
1100	CO[C@@H]1[C@@H](n2cc(-c3ccncc3)nn2)[C@@H](O)[C@@H](CO)O[C@H]1S[C@@H]1COC[C@H](n2cc(-c3ccccc3)nn2)[C@H]1O [Example A2, (2R,3R,4S,5R,6S)-6-(((3R,4R,5S)-4-hydroxy-5-(4-phenyl-1H-1,2,3-triazol-1-yl)tetrahydro-2H-pyran-3-yl)thio)-2-(hydroxymethyl)-5-methoxy-4-(4-(pyridin-4-yl)-1H-1,2,3-triazol-1-yl)tetrahydro-2H-pyran-3-ol]
11000	CO[C@@H]1[C@@H](n2cc(-c3ccc(-c4ccccc4)cc3)nn2)[C@@H](O)[C@@H](CO)O[C@H]1S[C@@H]1COC[C@H](n2cc(-c3ccccc3)nn2)[C@H]1O [Example A3, (2R,3R,4S,5R,6S)-4-(4-([1,1′-biphenyl]-4-yl)-1H-1,2,3-triazol-1-yl)-6-(((3R,4R,5S)-4-hydroxy-5-(4-phenyl-1H-1,2,3-triazol-1-yl)tetrahydro-2H-pyran-3-yl)thio)-2-(hydroxymethyl)-5-methoxytetrahydro-2H-pyran-3-ol]
26	CO[C@@H]1[C@@H](n2cc(-c3cccc(F)c3)nn2)[C@@H](O)[C@@H](CO)O[C@H]1S[C@@H]1COC[C@H](n2cc(-c3ccccc3)nn2)[C@H]1O [Example A4, (2R,3R,4S,5R,6S)-4-(4-(3-fluorophenyl)-1H-1,2,3-triazol-1-yl)-6-(((3R,4R,5S)-4-hydroxy-5-(4-phenyl-1H-1,2,3-triazol-1-yl)tetrahydro-2H-pyran-3-yl)thio)-2-(hydroxymethyl)-5-methoxytetrahydro-2H-pyran-3-ol]
490	CO[C@@H]1[C@@H](n2cc(-c3nccs3)nn2)[C@@H](O)[C@@H](CO)O[C@H]1S[C@@H]1COC[C@H](n2cc(-c3ccccc3)nn2)[C@H]1O [Example A5, (2R,3R,4S,5R,6S)-6-(((3R,4R,5S)-4-hydroxy-5-(4-phenyl-1H-1,2,3-triazol-1-yl)tetrahydro-2H-pyran-3-yl)thio)-2-(hydroxymethyl)-5-methoxy-4-(4-(thiazol-2-yl)-1H-1,2,3-triazol-1-yl)tetrahydro-2H-pyran-3-ol]
360	CO[C@@H]1[C@@H](n2cc(-c3cncnc3)nn2)[C@@H](O)[C@@H](CO)O[C@H]1S[C@@H]1COC[C@H](n2cc(-c3ccccc3)nn2)[C@H]1O [Example A6, (2R,3R,4S,5R,6S)-6-(((3R,4R,5S)-4-hydroxy-5-(4-phenyl-1H-1,2,3-triazol-1-yl)tetrahydro-2H-pyran-3-yl)thio)-2-(hydroxymethyl)-5-methoxy-4-(4-(pyrimidin-5-yl)-1H-1,2,3-triazol-1-yl)tetrahydro-2H-pyran-3-ol]
840	CO[C@@H]1[C@@H](n2cc(-c3cncs3)nn2)[C@@H](O)[C@@H](CO)O[C@H]1S[C@@H]1COC[C@H](n2cc(-c3ccccc3)nn2)[C@H]1O [Example A7, (2R,3R,4S,5R,6S)-6-(((3R,4R,5S)-4-hydroxy-5-(4-phenyl-1H-1,2,3-triazol-1-yl)tetrahydro-2H-pyran-3-yl)thio)-2-(hydroxymethyl)-5-methoxy-4-(4-(thiazol-5-yl)-1H-1,2,3-triazol-1-yl)tetrahydro-2H-pyran-3-ol]
